From US12503475B2 (Centessa Pharmaceuticals (UK) Limited, priority 2020, dated 2025)

Biological target: T1, human orexin type 2 receptor (hOX2R) (Homo sapiens, UniProt O43614)
T1 construct: expressed in transfected cells
T1 sequence (O43614 1-444): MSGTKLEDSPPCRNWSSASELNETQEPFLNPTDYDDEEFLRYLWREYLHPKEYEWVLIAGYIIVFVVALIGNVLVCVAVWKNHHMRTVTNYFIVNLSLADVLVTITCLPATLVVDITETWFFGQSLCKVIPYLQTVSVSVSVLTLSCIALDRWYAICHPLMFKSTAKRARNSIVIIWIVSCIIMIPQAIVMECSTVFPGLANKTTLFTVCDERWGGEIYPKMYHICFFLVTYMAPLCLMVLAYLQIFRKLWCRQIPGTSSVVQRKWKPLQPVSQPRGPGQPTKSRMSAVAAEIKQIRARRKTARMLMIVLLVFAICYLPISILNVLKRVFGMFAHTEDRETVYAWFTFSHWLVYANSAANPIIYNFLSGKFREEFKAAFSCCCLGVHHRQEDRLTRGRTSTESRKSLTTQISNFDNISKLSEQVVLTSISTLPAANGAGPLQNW
Experiment: Measurement of orexin type 2 receptor agonist activity (FLIPR calcium fluorescence)
Format: cell-based
Conditions: CHO cells expressing hOX2R, FLIPR calcium fluorescence; for EC50: read-out: hOx2 pEC50 (converted); for Emax: CHO, read-out: hOx2 Emax (%)
In short: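 Agonism was read as fluorescence in cells stably expressing human OX2R. E. is the response at 10 μM relative to orexin A as full agonist (100%).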

Row | EC50 [nM] | Emax [%] | Compound
1 | 10 to 100 | 90 to 100 | COC[C@H]1CCN1C(=O)N1CC2(CC2)[C@H](NS(C)(=O)=O)[C@@H]1Cc1cccc(-c2ccccc2)c1F [Compound 103, N-((6S,7S)-6-((2-fluoro-[1,1′-biphenyl]-3-yl)methyl)-5-((R)-2-(methoxymethyl)azetidine-1-carbonyl)-5-azaspiro[2.4]heptan-7-yl)methanesulfonamide]
2 | 0.0794 to 1 | 90 to 100 | CN(C)S(=O)(=O)N[C@@H]1[C@H](Cc2cccc(-c3ccccc3)c2F)N(C(=O)N2CC(F)C2)CC12CC2 [Compound 117, N-((6S,7S)-6-((2-fluoro-[1,1′-biphenyl]-3-yl)methyl)-5-(3-fluoroazetidine-1-carbonyl)-5-azaspiro[2.4]heptan-7-yl)-N,N-dimethylsulfuric diamide]
3 | 1 to 10 | 90 to 100 | O=C([C@H]1CCO1)N1CC2(CC2)[C@H](NS(=O)(=O)CF)[C@@H]1Cc1cc(F)cc(-c2cc(F)cc(F)c2)c1F [Compound 227, 1-fluoro-N-((6S,7S)-5-((R)-oxetane-2-carbonyl)-6-((2,3′,5,5′-tetrafluoro-[1,1′-biphenyl]-3-yl)methyl)-5-azaspiro[2.4]heptan-7-yl)methanesulfonamide]
4 | 100 to 1000 | 90 to 100 | CS(=O)(=O)NC1C(Cc2cccc(-c3ccccc3)c2)N(C(=O)N2CC(F)(F)C2)CC12CC2 (racemic) [Compound 10, N-(6-([1,1′-biphenyl]-3-ylmethyl)-5-(3,3-difluoroazetidine-1-carbonyl)-5-azaspiro[2.4]heptan-7-yl)methanesulfonamide]
5 | 1 to 10 | 90 to 100 | O=C(NC[C@@H]1CCO1)N1CC2(CC2)[C@H](NS(=O)(=O)C(F)F)[C@@H]1Cc1cccc(-c2ccccc2)c1F [Compound 368, (6S,7S)-7-((difluoromethyl)sulfonamido)-6-((2-fluoro-[1,1′-biphenyl]-3-yl)methyl)-N-(((S)-oxetan-2-yl)methyl)-5-azaspiro[2.4]heptane-5-carboxamide]
6 | 1 to 10 | 90 to 100 | C[C@@H](F)C(=O)N1CC2(CC2)[C@H](NS(=O)(=O)CF)[C@@H]1Cc1cc(F)cc(-c2ccccc2)c1F [Compound 418]
7 | 0.0794 to 1 | 90 to 100 | [2H]C([2H])([2H])c1cccc(-c2cccc(C[C@H]3[C@@H](NS(=O)(=O)CF)C4(CC4)CN3C(=O)[C@H]3CCO3)c2F)c1 [Compound 229, 1-fluoro-N-((6S,7S)-6-((2-fluoro-3′-(methyl-d3)-[1,1′-biphenyl]-3-yl)methyl)-5-((R)-oxetane-2-carbonyl)-5-azaspiro[2.4]heptan-7-yl)methanesulfonamide]
8 | 1 to 10 | 90 to 100 | C[C@H](F)C(=O)N1CC2(CC2)[C@H](NS(=O)(=O)CF)[C@@H]1Cc1cc(F)cc(-c2cccc(F)c2)c1F [Compound 393, 1-fluoro-N-((6S,7S)-5-((S)-2-fluoropropanoyl)-6-((2,3′,5-trifluoro-[1,1′-biphenyl]-3-yl)methyl)-5-azaspiro[2.4]heptan-7-yl)methanesulfonamide]
9 | 1 to 10 | 90 to 100 | N#CC1(C(=O)N2CC3(CC3)[C@H](NS(=O)(=O)CF)[C@@H]2Cc2cccc(-c3cc(F)cc(F)c3)c2F)CCC1 [Compound 231, N-((6S,7S)-5-(1-cyanocyclobutane-1-carbonyl)-6-((2,3′,5′-trifluoro-[1,1′-biphenyl]-3-yl)methyl)-5-azaspiro[2.4]heptan-7-yl)-1-fluoromethanesulfonamide]
10 | 1 to 10 | 90 to 100 | CS(=O)(=O)N[C@@H]1[C@H](Cc2cc(F)cc(-c3ccccc3)c2F)N(C(=O)[C@H](O)C2CC2)CC12CC2 [Compound 352, N-((6S,7S)-5-((R)-2-cyclopropyl-2-hydroxyacetyl)-6-((2,5-difluoro-[1,1′-biphenyl]-3-yl)methyl)-5-azaspiro[2.4]heptan-7-yl)methanesulfonamide]
11 | 1 to 10 | 90 to 100 | CS(=O)(=O)N[C@@H]1[C@H](Cc2cccc(-c3cccc(F)c3)c2F)N(C(=O)[C@H]2CCO2)CC12CC2 [Compound 67, N-((6S,7S)-6-((2,3′-difluoro-[1,1′-biphenyl]-3-yl)methyl)-5-((R)-oxetane-2-carbonyl)-5-azaspiro[2.4]heptan-7-yl)methanesulfonamide]
12 | 0.0794 to 1 | 90 to 100 | CCN(C)C(=O)N1CC2(CC2)[C@H](NS(C)(=O)=O)[C@@H]1Cc1cccc(-c2ccccc2)c1F [Compound 88, (6S,7S)-N-ethyl-6-((2-fluoro-[1,1′-biphenyl]-3-yl)methyl)-N-methyl-7-(methylsulfonamido)-5-azaspiro[2.4]heptane-5-carboxamide]
13 | 1 to 10 | 90 to 100 | C[C@H](CF)NC(=O)N1CC2(CC2)[C@H](NS(=O)(=O)C(F)F)[C@@H]1Cc1cccc(-c2ccccc2)c1F [Compound 212, (6S,7S)-7-((difluoromethyl)sulfonamido)-6-((2-fluoro-[1,1′-biphenyl]-3-yl)methyl)-N-((R)-I-fluoropropan-2-yl)-5-azaspiro[2.4]heptane-5-carboxamide]
14 | 10 to 100 | 90 to 100 | C[C@@H](C#N)C(=O)N1CC2(CC2)[C@H](NS(C)(=O)=O)[C@@H]1Cc1cccc(-c2ccccc2)c1 [Compound 309, N-((6S,7S)-6-([1,1′-biphenyl]-3-ylmethyl)-5-((S)-2-cyanopropanoyl)-5-azaspiro[2.4]heptan-7-yl)methanesulfonamide]
15 | 0.0794 to 1 | 90 to 100 | O=C([C@H](O)CF)N1CC2(CC2)[C@H](NS(=O)(=O)C(F)F)[C@@H]1Cc1cccc(-c2cccc(F)c2)c1F [Compound 380, N-((6S,7S)-6-((2,3′-difluoro-[1,1′-biphenyl]-3-yl)methyl)-5-((S)-3-fluoro-2-hydroxypropanoyl)-5-azaspiro[2.4]heptan-7-yl)-1,1-difluoromethanesulfonamide]
16 | 10 to 100 | 90 to 100 | CN(C(=O)N1CC2(CC2)[C@H](NS(C)(=O)=O)[C@@H]1Cc1cccc(-c2ccccc2)c1F)[C@H]1CCOC1 [Compound 321, (6S,7S)-6-((2-fluoro-[1,1′-biphenyl]-3-yl)methyl)-N-methyl-7-(methylsulfonamido)-N-((S)-tetrahydrofuran-3-yl)-5-azaspiro[2.4]heptane-5-carboxamide]
17 | 1 to 10 | 90 to 100 | COC[C@@H](C)NC(=O)N1CC2(CC2)[C@H](NS(C)(=O)=O)[C@@H]1Cc1cccc(-c2ccccc2)c1F [Compound 325, (6S,7S)-6-((2-fluoro-[1,1′-biphenyl]-3-yl)methyl)-N-((R)-1-methoxypropan-2-yl)-7-(methylsulfonamido)-5-azaspiro[2.4]heptane-5-carboxamide]
18 | 1 to 10 | 90 to 100 | CS(=O)(=O)N[C@@H]1[C@H](Cc2cccc(-c3ccccc3)c2)N(C(=O)C2(O)CCC2)CC12CC2 (racemic) [Compound 298]
19 | 1 to 10 | 90 to 100 | CC(F)(F)CNC(=O)N1CC2(CC2)[C@H](NS(=O)(=O)CF)[C@@H]1Cc1cccc(-c2ccccc2)c1F [Compound 409]
20 | 10 to 100 | 90 to 100 | CS(=O)(=O)N[C@@H]1[C@H](Cc2cccc(-c3ccccc3F)c2)N(C(=O)[C@H]2CCO2)CC12CC2 [Compound 40, N-((6S,7S)-6-((2′-fluoro-[1,1′-biphenyl]-3-yl)methyl)-5-((R)-oxetane-2-carbonyl)-5-azaspiro[2.4]heptan-7-yl)methanesulfonamide]
21 | 1 to 10 | 80 to 90 | [2H]C([2H])([2H])Oc1c(C[C@H]2[C@@H](NS(=O)(=O)CF)C3(CC3)CN2C(=O)NC([2H])([2H])C([2H])([2H])[2H])cccc1-c1ccccc1 [Compound 397, (6S,7S)-N-(ethyl-d5)-7-((fluoromethyl)sulfonamido)-6-((2-(methoxy-d3)-[1,1′-biphenyl]-3-yl)methyl)-5-azaspiro[2.4]heptane-5-carboxamide]
22 | 10 to 100 | 90 to 100 | CS(=O)(=O)N[C@@H]1[C@H](Cc2cccc(-c3ccccc3)c2)N(C(=O)C2(C#N)CCC2)CC12CC2 (racemic) [Compound 295]
23 | 1 to 10 | 80 to 90 | CC(C)S(=O)(=O)N[C@@H]1[C@H](Cc2cccc(-c3ccccc3)c2)N(C(=O)[C@H]2CCO2)CC12CC2 [Compound 114, N-((6S,7S)-6-([1,1′-biphenyl]-3-ylmethyl)-5-((R)-oxetane-2-carbonyl)-5-azaspiro[2.4]heptan-7-yl)propane-2-sulfonamide]
24 | 0.0794 to 1 | 90 to 100 | N#CC1(CNC(=O)N2CC3(CC3)[C@H](NS(=O)(=O)CF)[C@@H]2Cc2cccc(-c3ccccc3)c2F)CC1 [Compound 186, (6S,7S)-N-((1-cyanocyclopropyl)methyl)-6-((2-fluoro-[1,1′-biphenyl]-3-yl)methyl)-7-((fluoromethyl)sulfonamido)-5-azaspiro[2.4]heptane-5-carboxamide]
25 | 1 to 10 | 90 to 100 | O=C(NCC1COC1)N1CC2(CC2)[C@H](NS(=O)(=O)CF)[C@@H]1Cc1cccc(-c2ccccc2)c1F [Compound 366, (6S,7S)-6-((2-fluoro-[1,1′-biphenyl]-3-yl)methyl)-7-((fluoromethyl)sulfonamido)-N-(oxetan-3-ylmethyl)-5-azaspiro[2.4]heptane-5-carboxamide]
